Patent US20150047066A1, “PLANT HAVING INCREASED RESISTANCE OR SUSCEPTIBILITY TO 4-HPPD INHIBITOR” (TOYAMA PREFECTURE, priority 2010, published 2015)

Assays:
[1] = system: rice recombinants (Kanto 239) having the target gene (AK065581) introduced therein; test: BBC resistance assay on rice recombinants (T0, HIS1) in composted soil; format: in vivo; conditions: HIS1 recombinants T0 generation, composted soil treated with BBC at 300 ga.i./ha
Protocol: (§1) For transformation of rice, a BBC susceptible rice cultivar Kanto 239 was used, and the method described in “Taniguchi et al., Plant Cell Rep., 2010, vol. 29, iss. 11, pp. 1287 to 1295” was performed with some modification. Specifically, first, sterilized mature seeds were sown on an N6D medium. After culturing at 30° C. for 7 days, the seeds were infected with Agrobacterium, and co-cultured in an acetosyringone (AS)-containing N6 medium (2N6-AS medium) under a dark condition at 25° C. for 3 days. Thereafter, the infected tissues were cultured in a carbenicillin-containing N6D medium for 4 to 6 weeks (18 hours day length) in the presence of 40 mg/L hygromycin (Hyg), and Hyg-tolerant calli were re-differentiated.
Further, recombinants (TO generation) were prepared by introducing the target gene into the BBC susceptible rice cultivar “Kanto 239” that would be whitened by an agar medium containing 0.1 μM BBC, and the growth state of the recombinants was examined in composted soil treated with BBC at 300 ga.i./ha.

[2] = system: rice recombinants (Kanto 239) having the target gene (AK065581) introduced therein; test: Triketone type 4-HPPD inhibitor resistance assay on rice recombinants (T1/T2 seeds, HIS1) on agar medium; format: in vivo
Protocol: as §1
Rice recombinants (T1 and T2 generations) were produced and subjected to a resistance assay with triketone type 4-HPPD inhibitors, that is, mesotrione, tefuryltrione, tembotrione, and NTBC, using commercially-available reagents at concentrations to be described later.
Furthermore, recombinants were prepared by introducing the target gene into the BBC susceptible rice cultivar “Kanto 239” that would be whitened by an agar medium containing 0.1 μM BBC, and T1 seeds or T2 seeds were obtained. These were seeded on an agar medium containing 2 μM BBC, and the growth state of the recombinants was examined. […] Moreover, the seeds were seeded on an agar medium containing 1 μM mesotrione, 2.5 μM tefuryltrione, 0.5 μM tembotrione, or 1 μM NTBC, and the growth state of the recombinants was examined. FIGS. 12 to 15 show the obtained results.

KHSL04 = test: BBC susceptibility of Koshihikari/Habataki chromosome segment substitution lines (QTL analysis); format: in vivo, rice; conditions: KHSL04, short arm region of chromosome 2 substituted with Habataki type
Protocol: A Koshihikari/Habataki chromosome segment substitution line and Tachisugata//Tachisugata/Momiroman BC1F4 were tested. Specifically, Koshihikari/Habataki chromosome segment substitution lines (KHSL) were analyzed, in which a portion of chromosome fragments of a resistant cultivar Koshihikari serving as the genetic background was substituted with a chromosome of an indica type susceptible cultivar Habataki. Note that KHSL consists of 32 lines, and enables analysis on all of the whole 12 chromosomes of Habataki (as to KHSL, see Kazumasa Murata et al., “Development and evaluation of CSSLs carrying overlapping chromosome segments of rice cultivar Habataki in a genetic background of cultivar Koshihikari, ” Breeding Research, Mar. 27, 2009, vol. 11, supplement issue 1, p. 66). In addition, 94 BC1F4 lines obtained by one-time backcrossing of a resistant cultivar Tachisugata to a susceptible cultivar Momiroman were analyzed using 80 SSR markers (as to the SSR markers used, see “Development and mapping of 2240 new SSR markers for rice (Oryza sativa L.)”, DNA Res, 2002, vol. 9, iss. 6, pp. 199 to 207, and http://www.gramene.org/).
Accordingly, the QTL analysis was performed as described above on the Koshihikari/Habataki chromosome segment substitution lines (KHSL) using the BBC resistant rice cultivar “Koshihikari” and the susceptible rice cultivar “Habataki”.

[3] = system: tomato cultivar Micro-Tom; test: Germination of tomato seeds on BBC agar medium; format: in vivo; conditions: Micro-Tom seeds germinated on agar medium containing 0.3 μM BBC, 25° C., approximately 2 weeks
Protocol: For transformation of tomatoes, a cultivar “Micro-Tom” was tested, and an Agrobacterium method was performed using vectors (35SHIS1pZK3, 35SHSL1pZK3) shown in FIGS. 5 and 7. Note that when seeds of the original cultivar Micro-Tom were germinated on an agar medium containing 0.3 μM benzobicyclon (BBC) using an incubator at 25° C., it was clearly observed approximately 2 weeks later that leaf parts thereof were whitened.

[4] = system: Momiroman, Takanari, Kasalath; test: BBC susceptibility level of susceptible rice cultivars; format: in vivo; conditions: Momiroman and Takanari in comparison with Kasalath
[5] = system: BBC susceptible rice cultivar Kanto 239; test: BBC whitening of wildtype susceptible rice on agar medium; format: in vivo; conditions: Kanto 239 wildtype, agar medium containing 0.1 μM BBC
Protocol: Whether or not a protein encoded by a particular gene has an activity of providing a plant with resistance to a 4-HPPD inhibitor can be determined, for example, by introducing the gene into a plant, and assaying whether or not the plant thus produced is provided with the resistance as described in Examples later (see Example 2). Specifically, in a case of using A. thaliana (ecotype Columbia) that would be whitened by an agar medium containing 0.03 μM BBC, if a transformant produced by introducing the gene into A. thaliana can grow without being whitened in the presence of BBC at the above concentration, the protein encoded by the gene can be determined to have an activity of providing a plant with resistance to a 4-HPPD inhibitor. Moreover, in a case of using a BBC susceptible rice cultivar “Kanto 239” that would be whitened by an agar medium containing 0.1 μM BBC, if a transformant produced by introducing the gene into Kanto 239 can grow without being whitened in the presence of BBC at the above concentration, the protein encoded by the gene can be determined to have an activity of providing a plant with resistance to a 4-HPPD inhibitor. […]

[6] = system: rice recombinants (Kanto 239) having the homologous gene (HSL1; AK241948) introduced therein; test: BBC resistance assay on rice recombinants having the HSL1 gene (AK241948) on agar medium; format: in vivo; conditions: agar medium containing 0.12 μM BBC
Protocol: as §1
Specifically, recombinants were prepared by introducing the target gene into the BBC susceptible rice cultivar “Kanto 239” that would be whitened by an agar medium containing 0.1 μM BBC, and T1 seeds or T2 seeds were obtained. These were seeded on an agar medium containing 0.12 μM BBC, and the growth state of the recombinants was examined.

[7] = system: BBC resistant cultivar Nipponbare; test: BBC whitening of resistant rice cultivar on agar medium; format: in vivo
[8] = system: A. thaliana recombinants having the target gene introduced therein; test: BBC resistance assay on A. thaliana recombinants (T2) having the target gene (AK065581, HIS1) introduced; format: in vivo, Arabidopsis thaliana; conditions: HIS1 recombinants T2 generation, agar medium containing 0.03 μM BBC
Protocol: For transformation of A. thaliana, ecotype “Columbia” was used, and a Floral dip method was performed (see Weigel and Glazebrook, Arabidopsis, a laboratory manual, Cold Spring Harbor Laboratory Press (2002) p131-132). Specifically, first, Agrobacterium was shake-cultured in a liquid medium (LB or YEB) containing an antibiotic. Approximately 16 hours later, 2 ml of the culture solution was added to a liquid medium (LB or YEB) containing an antibiotic, and further shake-cultured. Then, the culture solution obtained approximately 16 hours thereafter was centrifuged at 8000 rpm at 4° C. for 10 minutes. The supernatant liquid was discarded, and the resulting precipitate was suspended in 500 ml of a solution containing 5% sucrose. Subsequently, immediately before the transformation, a transformation reagent silwet (registered trademark: SILWET L-77, product number: BMS-SL7755, manufactured by Bio Medical Science Inc.) was added thereto at a final concentration of 0.025%. Then, into the Agrobacterium suspension thus obtained, Arabidopsis from which already flowered and pollinated buds had been removed was dipped for 30 to 120 seconds. Thereafter, the plants were left standing for 16 hours and then grown to obtain the seeds. […]

[9] = system: A. thaliana (ecotype Columbia); test: BBC whitening of wildtype A. thaliana on agar medium; format: in vivo, Arabidopsis thaliana; conditions: agar medium containing 0.03 μM BBC
Protocol: Whether or not a protein encoded by a particular gene has an activity of providing a plant with resistance to a 4-HPPD inhibitor can be determined, for example, by introducing the gene into a plant, and assaying whether or not the plant thus produced is provided with the resistance as described in Examples later (see Example 2). Specifically, in a case of using A. thaliana (ecotype Columbia) that would be whitened by an agar medium containing 0.03 μM BBC, if a transformant produced by introducing the gene into A. thaliana can grow without being whitened in the presence of BBC at the above concentration, the protein encoded by the gene can be determined to have an activity of providing a plant with resistance to a 4-HPPD inhibitor. Moreover, in a case of using a BBC susceptible rice cultivar “Kanto 239” that would be whitened by an agar medium containing 0.1 μM BBC, if a transformant produced by introducing the gene into Kanto 239 can grow without being whitened in the presence of BBC at the above concentration, the protein encoded by the gene can be determined to have an activity of providing a plant with resistance to a 4-HPPD inhibitor.

[10] = system: Tos17-inserted lines of Nipponbare; test: Linkage analysis of BBC susceptibility in Tos17-inserted lines; format: in vivo, rice; conditions: all progenies of six Tos17-inserted homozygous individuals
From the text: A retrotransposon Tos17 discovered in rice is activated by tissue culture, and its copies are transposed into a genome. It is known that when the transposition site is inside a gene, the gene is to be disrupted, causing a mutation (see Hirochika et al., Proc. Natl. Acad. Sci. USA, 1996, vol. 93, pp. 7783 to 7788). The present Examples utilized a rice population having accumulated mutations caused by tissue culture utilizing the phenomenon (mutant panel, database name: Tos17 mutant panel database (http://tos.nias.affrc.go.jp/ to miyao/pub/tos17/)). From the Tos17 mutant panel database, two lines were selected, in each of which Tos17 was inserted in a transcription site of a hypothetical gene of an iron/ascorbate oxidoreductase gene, which was strongly suspected of being associated with BBC susceptibility located at a gene locus specified by the QTL analysis. Then, self-fertilized seeds obtained by planting 15 individuals of each of these two lines were used to examine phenotype (BBC susceptibility) and genotype (Tos17 insertion).
Although the original cultivar “Nipponbare” of the Tos17-inserted lines is a BBC resistant cultivar, BBC susceptible individuals are derived from the lines having Tos17 inserted in the transcription site of the target gene. […]

CS(=O)(=O)c1ccc(C(=O)C2=C(Sc3ccccc3)C3CCC(C3)C2=O)c(Cl)c1 (stereo not shown) [BBC, benzobicyclon]
growth state of the recombinants [1]: grew without being whitened
growth state of the recombinants ([2]; agar medium treated with 2 μM BBC): grew without being whitened
BBC susceptibility (KHSL04): showed susceptibility
whitening of leaf parts [3]: whitened
degree of BBC susceptibility [4]: high BBC susceptibility
whitening of the plant [5]: whitened
growth state of the recombinants [6]: grew without being whitened
whitening of the plant ([7]; 0.12 μM BBC): not whitened
whitening of the plant ([7]; agar medium 2 μM BBC): sufficient to whiten
growth state of the recombinants [8]: grew without being whitened
whitening of the plant [9]: whitened
phenotype (BBC susceptibility) [10]: showed BBC susceptibility

O=C1CCCC(=O)C1C(=O)c1ccc(C(F)(F)F)cc1[N+](=O)[O-] [NTBC, 2-(2-nitro-4-trifluoromethylbenzoyl)cyclohexane-1,3-dione]
growth state of the recombinants ([2]; agar medium treated with 1 μM NTBC): grew without being whitened

CS(=O)(=O)c1ccc(C(=O)C2C(=O)CCCC2=O)c([N+](=O)[O-])c1 [mesotrione]
growth state of the recombinants ([2]; agar medium treated with 1 μM mesotrione): grew without being whitened

CS(=O)(=O)c1ccc(C(=O)C2C(=O)CCCC2=O)c(Cl)c1COCC1CCCO1 (stereo not shown) [tefuryltrione]
growth state of the recombinants ([2]; agar medium treated with 2.5 μM tefuryltrione): grew without being whitened

CS(=O)(=O)c1ccc(C(=O)C2C(=O)CCCC2=O)c(Cl)c1COCC(F)(F)F [tembotrione]
growth state of the recombinants ([2]; agar medium treated with 0.5 μM tembotrione): grew without being whitened
